In patent publication US7960397B2, “6,9-disubstituted purine derivatives and their use as cosmetics and cosmetic compositions” (Institute of Experimental Botany, Academy of Sciences of …, priority 2007, dated 2011):

Tests used:
[1] = tested on: Amaranthus caudatus cotyledon/hypocotyl explants; test: Amaranthus bioassay (betacyanin content); design: species or system Amaranthus caudatus var. atropurpurea; conditions: for concentration with highest activity: betacyanin content after 48 h incubation, tested 10^−8 M to 10^−4 M; for Activity (%) [10^−5 mol · l^−1 BAP = 100%]: betacyanin content at the concentration with highest activity, 10^−5 M BAP = 100%
Experimental: Testing of novel compounds for typical cytokinin activity in Amaranthus bioassay. A standard Amaranthus bioassay was performed with several modifications. The seeds of Amaranthus caudatus var. atropurpurea were surface-sterilized in 10% (w/v) N-chlorobenzenesulfonamide for 10 min and washed 5 times with deionized water. They were placed in 14 cm Petri dishes containing paper tissues saturated with deionized water. After 72 h of cultivation at 25° C. in darkness, the roots of the seedlings were cut off. The explants, consisting of two cotyledons and hypocotyls, were placed in 5 cm Petri dishes onto two layers of filter paper soaked with 1 ml of the incubation medium containing 10 mmol of NA2HPO4—KH2PO4, pH 6.8, 5 mmol of tyrosine and the compound to be tested. There were 20 explants per dish. The procedure was carried out under a green safe light in a darkroom. […] The concentration of betacyanin was determined from the absorbencies at 537 nm and 620 nm as follows: DA=A537 nm−A620 nm. […] Relative activity of the compound at this concentration was calculated. The activity obtained for 10^−5 M 6-benzylaminopurine (BAP) was defined as 100%.
(§1) The compounds to be tested were dissolved in dimethylsulfoxide (DMSO) and the solution brought up to 10^−3 M with distilled water.

[2] = tested on: cytokinin-dependent tobacco callus Nicotiana tabacum L. cv. Wisconsin 38; test: Cytokinin activity in tobacco callus bioassay; format: cell-based; conditions: for concentration with highest activity: growth of tobacco callus, four weeks of cultivation, tested 10^−8 M to 10^−4 M; for Activity (%) [10^−5 mol · l^−1 BAP = 100%]: increase of fresh callus weight at the concentration with highest activity, 10^−5 M BAP = 100%
Experimental: Estimation of cytokinin biological activity of novel compounds in callus bioassay. Cytokinin-dependent tobacco callus Nicotiana tabacum L. cv. […] Subcultivation was carried out every three weeks. Fourteen days before the bioassay, the callus tissue was transferred to the media without the compound tested. The biological activity was determined from the increase of the fresh callus weight after four weeks of cultivation. Five replicates were prepared for each concentration of the compound tested and the entire test was repeated twice. […] The relative activity of the compound at this concentration was calculated (Table 8). […] The compounds to be tested were dissolved in dimethylsulfoxide (DMSO) and the solution brought up to 10^−3 M with distilled water. This stock solution was further diluted with the respective media used for the biotest to a concentration ranging from 10^−8 M to 10^−4 M.

[3] = tested on: excised wheat leaf tips; test: Antisenescence test, retention of chlorophyll in excised wheat leaf tips; design: species or system Triticum aestivum cv. Hereward; conditions: for activity (%) [10^−4 mol · l^−1 BAP = 100%]: retention of chlorophyll in excised wheat leaf tips at the concentration with highest activity, 10 replicate determinations; for concentration with highest activity: retention of chlorophyll in excised wheat leaf tips, tested range 10^−8 M to 10^−4 M, 96 h in the dark at 25° C.
Experimental: Testing of antisenescence properties of novel cytokinin compounds on wheat leaf segments. Seeds of winter wheat, Triticum aestivum cv. Hereward, were washed under running water for 24 hours and then sown on vermiculite soaked with the Knop's solution. They were placed in the grow chamber at 25° C. with a 16 h-8 h light period at 50 mmol.m^−2.s^−1. After 7 days, the first leaf was fully developed and the second leaf had started to grow. A 35 mm long tip section of the first leaf, was removed from each of 5 seedlings and trimmed slightly to a combined weight of 100 mg. The basal ends of the five leaf tips were placed in the wells of a microtiter polystyrene plate containing […] of the solution of the tested compound each. The entire plate was inserted into a plastic box lined with paper tissues soaked with distilled water to prevent leaf sections from drying out. After 96 h incubation in the dark at 25° C., the leaves were removed and chlorophyll was extracted by heating at 80° C. for 10 min in 5 ml of 80% ethanol (v/v). The sample volume was then restored to 5 ml by the addition of 80% ethanol (v/v). The absorbance of the extract was recorded at 665 nm. In addition, chlorophyll extracts from fresh leaves and leaf tips incubated in deionized water were measured. […] Relative activity of the compound at this concentration was calculated (Table 7). The activity obtained for 10^−4 M 6-benzylaminopurine (BAP) was defined as 100%. The values shown are means of five replicates and the whole experiment was repeated twice.
as §1

Compound | concentration with highest activity [1] | Activity (%) [10^−5 mol · l^−1 BAP = 100%] [1] | concentration with highest activity [2] | Activity (%) [10^−5 mol · l^−1 BAP = 100%] [2] | activity (%) [10^−4 mol · l^−1 BAP = 100%] [3] | concentration with highest activity [3]
COc1cccc(CNc2ncnc3c2ncn3CCCCCl)c1O | 10^−4 mol · l^−1 | 53% |  |  |  | 
Oc1ccc(CNc2ncnc3c2ncn3C2CCCCO2)c(O)c1 (stereo not drawn) |  |  | 10^−5 mol · l^−1 | 5% |  | 
Oc1ccc(O)c(CNc2ncnc3c2ncn3C2CCCCO2)c1 (stereo not drawn) | 10^−4 mol · l^−1 | 35.1% | 10^−5 mol · l^−1 | 20% | 15% | 10^−4 mol · l^−1
COc1ccc(CNc2ncnc3c2ncn3C2CCCO2)cc1O (stereo not drawn) | 10^−4 mol · l^−1 | 32% | 10^−6 mol · l^−1 | 47% | 35% | 10^−4 mol · l^−1
Oc1cc(O)cc(CNc2ncnc3c2ncn3C2CCCCO2)c1 (stereo not drawn) | 10^−5 mol · l^−1 | 53% | 10^−6 mol · l^−1 | 45% | 145% | 10^−4 mol · l^−1
COc1cc(O)cc(OC)c1CNc1ncnc2c1ncn2C1CCCO1 (stereo not drawn) | 10^−4 mol · l^−1 | 7% | 10^−5 mol · l^−1 | 31% | 14% | 10^−4 mol · l^−1
Cc1cc(Nc2ncnc3c2ncn3C2CCCO2)ccc1O (stereo not drawn) | 10^−4 mol · l^−1 | 6% | 10^−5 mol · l^−1 | 7% | 4% | 10^−4 mol · l^−1
CCOC(C)n1cnc2c(NCCC(C)CO)ncnc21 (stereo not drawn) | 10^−4 mol · l^−1 | 85% | 10^−4 mol · l^−1 | 95% | 94% | 10^−4 mol · l^−1
CC(CO)CCNc1ncnc2c1ncn2CCCCCl (stereo not drawn) | 10^−4 mol · l^−1 | 81% | 10^−4 mol · l^−1 | 84% | 89% | 10^−4 mol · l^−1
COc1cc(CNc2ncnc3c2ncn3C2CCCO2)cc(OC)c1O (stereo not drawn) | 10^−4 mol · l^−1 | 2% | 10^−5 mol · l^−1 | 27% | 36% | 10^−4 mol · l^−1
COc1cccc(CNc2ncnc3[nH]cnc23)c1O [2-hydroxy-3-methoxybenzylamino / H, reference compound] | 10^−4 mol · l^−1 | 19% |  |  | 34% | 10^−4 mol · l^−1
Oc1ccccc1CNc1ncnc2c1ncn2CCCCCl [2-hydroxybenzylamino / 4-chlorobutyl] | 10^−4 mol · l^−1 | 47.5% |  |  | 47.5% | 10^−4 mol · l^−1
Oc1cc(O)cc(CNc2ncnc3[nH]cnc23)c1 [3,5-dihydroxybenzylamino / H, reference compound] | 10^−5 mol · l^−1 | 53% | 10^−6 mol · l^−1 | 39% | 134% | 10^−4 mol · l^−1
CCOC(C)n1cnc2c(NCc3cccc(O)c3)ncnc21 (stereo not drawn) [3-hydroxybenzylamino / 1-ethoxyethyl] | 10^−4 mol · l^−1 | 108.2% | 10^−4 mol · l^−1 | 109.4% | 108.2% | 10^−4 mol · l^−1
Oc1cccc(CNc2ncnc3c2ncn3CCCCCl)c1 [3-hydroxybenzylamino / 4-chlorobutyl] | 10^−4 mol · l^−1 | 102.5% | 10^−4 mol · l^−1 | 111.6% | 102.5% | 10^−4 mol · l^−1
Cc1cc(CNc2ncnc3c2ncn3C2CCCO2)ccc1O (stereo not drawn) [4-hydroxy-3-methylbenzylamino / tetrahydrofuran-2-yl] | 10^−4 mol · l^−1 | 2% | 10^−5 mol · l^−1 | 12% | 1.4% | 10^−4 mol · l^−1
CC(CO)CCNc1ncnc2[nH]cnc12 (stereo not drawn) [4-hydroxy-3-methylbutylamino / H, reference compound] | 10^−4 mol · l^−1 | 75% | 10^−5 mol · l^−1 | 83.2% | 89% | 10^−4 mol · l^−1
Cc1cc(CNc2ncnc3c2ncn3C2CCCO2)ccc1O (stereo not drawn) [4-hydroxy-5-methylbenzylamino / tetrahydrofuran-2-yl] | 10^−4 mol · l^−1 | 22% | 10^−5 mol · l^−1 | 2% | 17% | 10^−4 mol · l^−1
